Experiment: gradient 5% acetonitrile 3 min, to 50% in 2 min, to 85% in 15 min, held 3 min, 100 µL/min
Conditions: column: Zorbax Extend-C18 2.1 x 50 mm; eluents: water / acetonitrile, 0.1% formic acid
How it was run: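 Data were gathered over 3 months by HPLC coupled to a quadrupole time-of-flight mass spectrometer, operated in positive and negative ionization mode. Mixtures of ~100 pure standards ran on a Zorbax Extend-C18 column (2.1 × 50 mm, 1.8 μm) at 100 μL/min, with water and acetonitrile each containing 0.1% formic acid and dead and dwell volumes of 40 μL and 900 μL. Retention time was read from adduct peaks picked by computer and checked manually.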
For `COCCN1C(=O)CCc2cc(NS(=O)(=O)c3c(C)cccc3Cl)ccc21`, the RP-LC retention time was 795 s. In the case of `CCCN1C(=O)c2cc(C(=O)N3CCC(C)CC3)nn2CC1(C)C(=O)NC1CCCC1` (configuration not stated), the RP-LC retention time was 817 s. In the case of `O=C(N[C@@H](COc1ccc2[nH]c(=O)[nH]c2c1)c1ccccc1)c1cccn(Cc2ccc(F)c(F)c2)c1=O`, the RP-LC retention time was 893 s. Work on `Cc1nn2c(NC(=O)CSc3nnc4sc5ccccc5n34)csc2nc1=O` yielded an RP-LC retention time of 635 s. `O=C(CCn1cnc2cc(-c3noc(-c4ccc(Cl)cc4)n3)ccc21)N1CCOCC1` gave an RP-LC retention time of 754 s. `Cc1cccc(-c2nnc(-c3ccc(Cl)c(S(=O)(=O)N4CCCCC4)c3)o2)c1` showed an RP-LC retention time of 1250 s. With `Cc1ccc(S(=O)(=O)N2CCC(n3cnnc3C(C)C)CC2)c(C)c1` the RP-LC retention time was 784 s. In the case of `COC(=O)c1c(C)[nH]c(C(=O)N2CCC(CC(=O)NCCC(C)N3CCCC3)CC2)c1C` (configuration not stated), the RP-LC retention time was 578 s. With `CS(=O)(=O)Nc1ccc([N+](=O)[O-])cc1Oc1ccccc1` the RP-LC retention time was 967 s. Work on `COCCNC(=O)C(=O)Nc1ccc(Br)cc1` yielded an RP-LC retention time of 795 s. Work on `CCCNC(=O)C1CCN(c2ccc(SCC(=O)Nc3ccc(F)c(Cl)c3)nn2)CC1` yielded an RP-LC retention time of 692 s. `COc1ccc(-c2cnn3c(C)cc(C)nc23)cc1S(=O)(=O)NC(C)c1ccccc1` (configuration not stated) showed an RP-LC retention time of 1010 s. Compound `COC(=O)C1=C(C)NC(=O)NC1c1cn(-c2ccccc2)nc1-c1ccc(Cl)cc1` (configuration not stated) has an RP-LC retention time of 784 s. In the case of `Cc1ccc(CN2CCN(CC(=O)NCCCc3ccccc3)C(=O)C2=O)cc1`, the RP-LC retention time was 794 s. Compound `O=C(c1cc(S(=O)(=O)N2CCCC(C(=O)N3CCCC3)C2)c[nH]1)N1CCCCCC1` (configuration not stated) has an RP-LC retention time of 733 s. Compound `COc1cccc(C(=O)Nc2nc(-c3ccc4c(c3)NC(=O)CO4)c(C)s2)c1` has an RP-LC retention time of 877 s. `Cc1oc(C2CCN(S(=O)(=O)c3ccc(C#N)cc3)CC2)nc1C(=O)N1CCCC1` showed an RP-LC retention time of 872 s. With `COc1ccc(-c2nc3ncc4c(=O)n(CCc5ccc(OC)c(OC)c5)ccc4n3n2)cc1` the RP-LC retention time was 854 s. Compound `COc1cc(NC(=O)N2CCN(c3ccc(=O)n(-c4ccc(C)cc4)n3)CC2)cc(OC)c1OC` has an RP-LC retention time of 749 s. In the case of `CCOc1ccc2ncc(C#N)c(NCc3ccccc3)c2c1`, the RP-LC retention time was 634 s. `Cc1cc(=O)n(CC(=O)Nc2ccccc2C#N)cn1` showed an RP-LC retention time of 571 s. With `O=C1NC2(CCN(C(=O)c3cc(F)cc(F)c3)CC2)Nc2cc(Cl)ccc21` the RP-LC retention time was 774 s. Work on `Cc1ccc(NC(=O)Cn2ccc3sccc3c2=O)c(C)c1` yielded an RP-LC retention time of 766 s. With `Cc1ccc(F)cc1NS(=O)(=O)c1ccc2c(c1)C(=O)N(C)c1ncccc1O2` the RP-LC retention time was 924 s. In the case of `CCn1cc(S(=O)(=O)NCc2ccccc2)c2cccnc21`, the RP-LC retention time was 804 s. With `COc1ccc(CNS(=O)(=O)c2ccc(-c3c(C)noc3C)cc2)cc1` the RP-LC retention time was 886 s. Work on `CCN1c2ccc(F)cc2C(=O)NC12CCN(C(=O)c1ccccc1)CC2` yielded an RP-LC retention time of 763 s. `N#CC(C#N)=Cc1ccc(O)c(O)c1` gave an RP-LC retention time of 841 s. `Cc1cc(C)cc(Nc2c(-c3ccc(N(C)C)cc3)nc3cnccn23)c1` showed an RP-LC retention time of 921 s. In the case of `CC(C)(C)c1ccc(S(=O)(=O)N2CCCC2c2nc(-c3ccc(F)cc3)no2)cc1` (configuration not stated), the RP-LC retention time was 1310 s. Work on `CN1C(=O)Cc2cc(NC(=O)c3cccs3)ccc21` yielded an RP-LC retention time of 631 s. Compound `Cc1cc2nn(CC(=O)Nc3ccc(F)c(Cl)c3)c(=O)n2c(Nc2ccccc2)n1` has an RP-LC retention time of 1070 s. In the case of `CCOc1cc(Nc2ccc(NC(=O)c3ccco3)cc2)nc(C)n1`, the RP-LC retention time was 591 s. In the case of `Cc1cc(NC(=O)c2ccc(=O)n(C)n2)no1`, the RP-LC retention time was 598 s. For `O=C(Cn1nc2c(c1NC(=O)c1c(F)cccc1Cl)CSC2)NCc1ccco1`, the RP-LC retention time was 750 s. For `CCc1ccc(NC(=O)CN2C(=O)CCCc3cc(S(=O)(=O)N4CCCC4)ccc32)cc1`, the RP-LC retention time was 918 s. `CC(C)n1c(N2CCCN(C(=O)c3ccccn3)CC2)cc(=O)n(C(C)C)c1=O` showed an RP-LC retention time of 712 s. In the case of `O=C(NS(=O)(=O)c1ccc(F)cc1)c1ccccc1`, the RP-LC retention time was 744 s. For `Cc1ccc(CNC(=O)c2ccc3c(c2)ncn3CCN2CCCC2)cc1C`, the RP-LC retention time was 595 s. For `O=C1[C@H]2CN(Cc3cccc(F)c3)C[C@H]2C(=O)N1CCc1ccccc1`, the RP-LC retention time was 804 s. For `Cc1ccc(NC(=O)N2CCC3(C2)c2nc[nH]c2CCN3C)c(C)c1` (configuration not stated), the RP-LC retention time was 568 s. `CCc1nc(-c2csc(S(=O)(=O)N3CCCC(C(=O)NCc4ccccc4)C3)c2)no1` (configuration not stated) showed an RP-LC retention time of 960 s. With `Cc1cccc(S(=O)(=O)N2CCC(c3cc(=O)n4nccc4n3C)CC2)c1` the RP-LC retention time was 718 s. For `COc1cccc(S(=O)(=O)N2CCC(c3noc(-c4cccc(F)c4)n3)CC2)c1`, the RP-LC retention time was 1110 s. With `Cc1ccc(CCNC(=O)c2cc3sccc3n2Cc2ccc(Cl)cc2)cc1` the RP-LC retention time was 1270 s. With `Cc1ccc(Nc2c(-c3ccc(N(C)C)cc3)nc3cnccn23)cc1` the RP-LC retention time was 855 s. In the case of `CCCN1CCN(C(=O)CC2CCN(C(=O)c3[nH]c(C)c(C(=O)OC(C)C)c3C)CC2)CC1`, the RP-LC retention time was 624 s. `CCOc1ccc(CCNc2nc(-c3ccc(OC)cc3)no2)cc1OCC` showed an RP-LC retention time of 1020 s. For `COc1ccc(C2c3c(n(C)c4ccccc34)C(=O)N2CC(=O)N2CCN(c3ccccn3)CC2)cc1` (configuration not stated), the RP-LC retention time was 710 s. For `CCCCN(C)Cc1nnn(-c2ccc(F)cc2)c1C`, the RP-LC retention time was 617 s. `Cc1ccc(CCC(=O)Nc2nc(-c3ccc4c(c3)NC(=O)C(C)O4)cs2)cc1` (configuration not stated) gave an RP-LC retention time of 973 s. Compound `COC(=O)c1sccc1NC(=O)C1CCN(Cc2nc(-c3ccc(OC)c(OC)c3)no2)CC1` has an RP-LC retention time of 747 s. For `COc1ccc(Cl)cc1NC(=O)C1CCCN(c2cc(=O)n(C)c(=O)n2C)C1` (configuration not stated), the RP-LC retention time was 786 s. In the case of `O=C(Nc1ccc(F)cc1)Nc1ccc2nc3n(c(=O)c2c1)CCC3`, the RP-LC retention time was 688 s. In the case of `Cc1nn(-c2ccccc2)c(C)c1CCc1nn2c(-c3ccccc3F)nnc2s1`, the RP-LC retention time was 865 s. `COc1ccc(-c2noc(C3CC(=O)N(c4ccc(OC)c(Cl)c4)C3)n2)cc1` (configuration not stated) showed an RP-LC retention time of 947 s. `CCc1ccc(NC(=O)Cn2c(CC)nc3c(c2=O)CN(Cc2ccccc2)CC3)cc1` showed an RP-LC retention time of 710 s. In the case of `Cc1nc(-c2cn(C)c3ncccc23)sc1C(=O)N1CCN(c2ccccc2)CC1`, the RP-LC retention time was 932 s. `CCCc1noc(-c2ccc(-n3ncc(C(=O)NC4CC4)c3C)nc2)n1` showed an RP-LC retention time of 865 s. With `Cc1ccc(S(=O)(=O)N2CCC(C)(C(=O)NCc3ccc(F)cc3)CC2)cc1` the RP-LC retention time was 942 s. `CCc1cccc(NS(=O)(=O)c2cc(-c3[nH]ncc3C(=O)N3CCCCC3)oc2C)c1` gave an RP-LC retention time of 819 s. With `CCN(CC)S(=O)(=O)c1cc(-c2nnc(C)o2)co1` the RP-LC retention time was 737 s. For `CC(C)(C)c1ccc(C(=O)NC2CCN(c3cc(-c4ccccc4)[nH]n3)C2)cc1` (configuration not stated), the RP-LC retention time was 872 s. `Cn1nc(C(=O)NCc2ccc(F)cc2)c2c1CCN(C(=O)c1ccc(Br)o1)C2` showed an RP-LC retention time of 790 s. With `Cc1ccc2c(c1)C(=O)C1(O)CCN(c3ccccc3)C1=N2` (configuration not stated) the RP-LC retention time was 646 s. For `Cc1ccc2c(c1)NC(=O)C(C(=O)NC1CCCCCCC1)O2` (configuration not stated), the RP-LC retention time was 895 s. For `COc1ccc(-c2cc(N3CCC(NC(=O)c4cccc(OC(F)(F)F)c4)C3)n[nH]2)cc1` (configuration not stated), the RP-LC retention time was 828 s. `Cc1nn(-c2ccccc2)c(C)c1S(=O)(=O)N1CCC(C(=O)N2CCc3ccccc32)CC1` showed an RP-LC retention time of 1020 s. Compound `Cc1ccc2ncn(C3CCN(S(=O)(=O)c4ccc(F)cc4F)CC3)c(=O)c2c1` has an RP-LC retention time of 904 s. `COc1ccc2[nH]c(=O)c(CCC(=O)NCCCN3CCCC(C)C3)cc2c1` (configuration not stated) showed an RP-LC retention time of 585 s. Compound `O=C(Cn1cccc1-c1nc(-c2ccc3c(c2)OCO3)no1)Nc1cccc(Cl)c1` has an RP-LC retention time of 1060 s. In the case of `COc1ccc(Nc2nc(-c3nnn(-c4ccc(Br)cc4F)c3C)ns2)cc1`, the RP-LC retention time was 1080 s. `O=C(NCC#CCN1CCc2ccccc2C1)NC1CCCCC1` gave an RP-LC retention time of 566 s. `CCCCC#Cc1nc(NC)c2ncn([C@@H]3O[C@H](CO)C(O)[C@@H]3O)c2n1` (some centres not stated) gave an RP-LC retention time of 724 s. `O=C(c1cccs1)N1CCc2ccc(NS(=O)(=O)C3CCCCC3)cc21` gave an RP-LC retention time of 892 s. Compound `CN(CC1CCOCC1)S(=O)(=O)c1cccc(Cl)c1` has an RP-LC retention time of 876 s. For `Cc1ccc(C(=O)NCCn2c(C)cnc2C)s1`, the RP-LC retention time was 589 s. With `Cc1ccc(Cn2cccc2C(=O)C(=O)NCc2ccc(C)o2)cc1` the RP-LC retention time was 1080 s. In the case of `CCOC(=O)C(=O)Nc1ccc(SCc2nnc(-c3ccccc3)o2)cc1`, the RP-LC retention time was 881 s. In the case of `CCN1C(=O)c2cccnc2Sc2cc(CNC(=O)c3ccc(C#N)cc3)ccc21`, the RP-LC retention time was 756 s. Work on `CC(Cc1ccco1)NC(=O)C1CC(=O)N(c2ccc(F)cc2)C1` (configuration not stated) yielded an RP-LC retention time of 714 s. `Cc1nnc(N2CCCC(C(=O)NCCCOC(C)C)C2)c2nn(-c3ccccc3)c(C)c12` (configuration not stated) showed an RP-LC retention time of 678 s. `COc1ccc(-c2ccc3c(N4CCOCC4)nc(N4C[C@@H](C)O[C@@H](C)C4)nc3n2)cc1CO` gave an RP-LC retention time of 698 s. For `CCOc1cc(=O)n2c(c1C(=O)NC1CCc3ccccc31)CCCCC2` (configuration not stated), the RP-LC retention time was 766 s. For `CSc1cccc(NC(=O)Cn2c(N3CCc4ccccc4C3)nc(C)cc2=O)c1`, the RP-LC retention time was 840 s. Work on `CCn1c(=O)sc2cc(S(=O)(=O)N3CCC(C(=O)Nc4ccccc4OC)CC3)ccc21` yielded an RP-LC retention time of 917 s. For `O=C(NCCCN1CCC(Cc2ccccc2)CC1)C1CCCN(S(=O)(=O)N2CCOCC2)C1` (configuration not stated), the RP-LC retention time was 660 s.
